Key:
[1] = target: T1, Dihydrofolate reductase (Mycobacterium tuberculosis) (UniProt P9WNX1)
T1 sequence (whole entry): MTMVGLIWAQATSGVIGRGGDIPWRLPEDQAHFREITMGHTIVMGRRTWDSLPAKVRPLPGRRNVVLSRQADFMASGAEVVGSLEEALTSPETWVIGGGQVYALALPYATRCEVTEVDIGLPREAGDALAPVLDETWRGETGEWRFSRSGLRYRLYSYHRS
Description: Inhibition of Mycobacterium tuberculosis DHFR expressed in Saccharomyces cerevisiae TB5 assessed as yeast growth inhibition after 3 days by radial spoke assay

[2] = target: T2, Dihydrofolate reductase (Homo sapiens) (UniProt P00374)
T2 sequence (whole entry): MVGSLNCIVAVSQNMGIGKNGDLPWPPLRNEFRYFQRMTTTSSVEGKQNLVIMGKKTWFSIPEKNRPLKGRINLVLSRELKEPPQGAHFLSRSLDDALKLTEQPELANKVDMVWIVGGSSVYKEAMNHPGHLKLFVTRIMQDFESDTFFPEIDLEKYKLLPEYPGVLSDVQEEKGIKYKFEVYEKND
Description: Inhibition of human DHFR expressed in Saccharomyces cerevisiae TB5 assessed as yeast growth inhibition after 3 days by radial spoke assay

[3] = target: T3, Dihydrofolate reductase (Saccharomyces cerevisiae S288c) (UniProt P07807)
T3 sequence (whole entry): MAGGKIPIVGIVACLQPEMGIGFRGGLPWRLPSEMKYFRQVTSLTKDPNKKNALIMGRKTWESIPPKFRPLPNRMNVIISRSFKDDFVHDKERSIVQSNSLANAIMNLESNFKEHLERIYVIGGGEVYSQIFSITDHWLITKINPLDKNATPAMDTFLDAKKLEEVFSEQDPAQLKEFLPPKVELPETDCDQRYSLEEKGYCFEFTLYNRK
Description: Inhibition of yeast DHFR expressed in Saccharomyces cerevisiae TB5 assessed as yeast growth inhibition by after 3 days by radial spoke assay

Structure (SMILES) | IZ [1] [mm] | IZ [2] [mm] | IZ [3] [mm]
Nc1nc(N)c(-c2ccc(Cl)c(Cl)c2)c(CCCCCO)n1 | 9 | 9 | 9
Nc1nc(N)c(-c2ccccc2)c(CC[C@H](O)[C@@H](O)CO)n1 | 9 | 8 | 8
Nc1nc(N)c(-c2ccc(Cl)c(Cl)c2)c([C@H](O)[C@H](O)CO)n1 | 8 | 8 | 7
Nc1nc(N)c(-c2ccccc2)c([C@H](O)[C@H](O)CO)n1 | 5 | 5 | 5
Nc1nc(N)c(-c2ccc(Cl)c(Cl)c2)c(CC[C@@H](O)[C@@H](O)CO)n1 | 8 | 8 | 8
CCc1nc(N)nc(N)c1-c1cccc(Cl)c1 | 5 | 6 | 5
Nc1nc(N)c(-c2ccc(Br)cc2)c([C@H](O)[C@H](O)CO)n1 | 5 | 5 | 5
Nc1nc(N)c(-c2ccc(Br)cc2)c(CC[C@H](O)[C@@H](O)CO)n1 | 8 | 5 | 6
Nc1nc(N)c(-c2ccc(Cl)cc2)c(CC[C@@H](O)[C@@H](O)CO)n1 | 9 | 7 | 7
Nc1nc(N)c(-c2ccc(Cl)cc2)c([C@H](O)[C@H](O)CO)n1 | 5 | 5 | 5
Nc1nc(N)c(-c2ccc(Cl)cc2)c(CCCCCO)n1 | 8 | 8 | 8
Nc1nc(N)c(-c2ccccc2)c(CCCCCO)n1 | 7 | 7 | 9
Nc1nc(N)c(-c2ccc(Br)cc2)c(CCCCCO)n1 | 8 | 8 | 9
Nc1nc(N)c(-c2ccc(Br)cc2)c(CC[C@@H](O)[C@@H](O)CO)n1 | 7 | 6 | 8
Nc1nc(N)c(-c2ccccc2)c(CC[C@@H](O)[C@@H](O)CO)n1 | 11 | 6 | 6
Nc1ncc(-c2ccccc2)c(CCc2ccccc2)n1 | 5 | 5 | 5
Nc1nc(N)c(-c2ccc(Cl)cc2)c(CC[C@H](O)[C@@H](O)CO)n1 | 7 | 7 | 6
